Here are results for one compound from patent publication US9040255B2, “Use of diazolidinyl urea for anti-clumping of biological samples” (BIOCEPT, INC., priority 2010, dated 2015).

SMILES strings stand for the structures.

The experiment relates to cell clumps in blood. Nature of the experiment: Cell clumping of biological samples (blood) processed through a microfluidic device. It counts as cell-based. Conditions: DU 2% final working concentration, incubated at room temperature for 30 minutes or overnight, compared with samples without DU (FIGS. 1-4). The method, then: In this experiment, DU was dissolved in PBS to make an 80% (w/v) aqueous concentrated solution. The concentrated solution was then added to biological samples in such a way as to yield a final working concentration of 2%. Biological samples were gently mixed with DU solution to ensure equal distribution of DU, and the resulting mixture was incubated at room temperature for at least 30 minutes.
Samples were then processed according to pre-determined protocols.
FIG. 1 provides an example of samples without being treated with DU and processed through a microfluidic device. The white strands are cell clumps.
FIG. 2 provides an example of samples being treated with DU and processed through a microfluidic device (for this particular experiment, the sample and DU were incubated overnight).
FIG. 3 provides another example of samples without being treated with DU and processed through a microfluidic device.
FIG. 4 provides another example of samples being treated with DU and processed through a microfluidic device (for this particular experiment, the sample and DU were incubated for 30 minutes.

In the case of `O=C(NCO)N(CO)C1(CO)C(=O)NC(=O)N1CO` (stereo not shown) [DU, diazolidinyl urea], the “reduction of cellular clumping” value is on record as “great improvement for reducing cellular clumping”.
